In series [1] the test system is Beet Armyworm (Spodoptera littoralis) larvae. The experiment in a line: Beet Armyworm Topical Assay. Format: in vivo. Particulars: rate 1 ug/larva, 21° C. Here is the method: B. Beet Armyworm (Spodoptera littoralis) Topical Assay.
An additional measure of the relative insecticidal activities of the formula 1 compounds was generated by using a 1 μg/μL methanol solution of each compound applied at 1 μL per larva of laboratory-reared Spodoptera littoralis, (mean wt of 43 mg). Each compound was applied along the dorsum of each of six larvae. Treated larvae were then held for five days at 21° C., 60% RH in six well plastic culture plates. Larvae were each supplied with a 1 cm^3 of agar-based lepidoptera diet for sustenance during the 5-day post-exposure interval. Percent mortality was determined at the end of a five day period.

The subject of another series is adult stable fly. The experiment in a line: In vivo Mouse/Adult Stable Fly (ASF) Assay. Also on record: species or system adult stable fly fed on mice (Mus musculus). Particulars: mice dosed 100 mg/kg, orally or topically. On the procedure:
On Study Day 0, six, thirty-gram, white laboratory mice (Mus musculus) (8-10 week old, ICR females, Harlan-Sprague-Dawley, Inc., Indianapolis, Ind.) per treatment were dosed with test article or solvent (90% ethyl oleate/10% DMSO), either orally or topically. On Study Day 1, two mice from each treatment were anesthetized with a 0.25 mL intramuscular injection of a combination of 1.0 mL ketamine (Fort Dodge, Ketaset®, ketamine HCl injection, 100 mg/mL) and 1.0 mL xylazine (Bayer, Rompun®, 20 mg/mL injectable) in 4.5 mL sterile water. The anesthetized mice were placed in the fly boxes containing 30 adult stable fly. The anesthetized mice were left in the boxes for up to 60 minutes and the flies allowed to obtain a blood meal undisturbed. After removal from the fly boxes, the unconscious mice were immediately euthanized with CO2. The fly boxes were exposed to a 12-our day/12-hour night cycle for the entire study period. The temperature in the assay room was 68-72° F. and the humidity was 50-60%. These procedures were repeated exactly on Study Days 2 and 3 with the remaining treated mice. Each day the number of dead flies was recorded and fly boxes discarded. Total percent fly mortality was determined for each treatment and compared to fly mortality of continuously fed ASF and ASF fed on solvent treated control mice.

In series [2] the test system is larval ticks (Amblyomma americannum). Nature of the series: In vitro Tick Larval Packet Test (LPT) Assay. Particulars: 24 hours. On the procedure:
Titrated levels of experimental compounds were dissolved in a combination of olive oil and trichloroethylene and pipetted onto squares of laboratory filter paper. After allowing about an hour for the trichloroethylene to evaporate, the filter papers were folded in half and two sides secured with clamps, forming packets.
Approximately, 100 larval ticks (Amblyomma americannum) were placed inside each packet and the remaining open side secured with a clamp. The packets were incubated for 24 hours at approximately 72° F. and 95% humidity. Each packet was opened separately and the number of live and dead larvae determined. Percent mortality was determined for each compound.

Series [3] deals with adult stable flies (Stomoxys calcitrans). The experiment in a line: In vitro Adult Stable Fly Assay. On the procedure: Dental wicks were saturated with serum containing titrated levels of experimental compounds starting at 100 ppm. The dental wicks were placed in petri dishes along with 10 adult stable flies (Stomoxys calcitrans) previously chilled for easier handling. Percent mortality was determined after 24 and 48 hours incubation at approximately 25° C. and 75-85% humidity when compared to a dish containing a wick with control serum only.

Series [4] has as its system larval blowfly (Phormia regina). Nature of the series: In vitro Larval Blow Fly Assay. Also on record: key to efficacy by visual inspection for larvae movement: A indicates mortality as indicated by absence of larvae movement; N indicates that larvae movement was observed. Particulars: for efficacy by visual inspection for larvae movement: up to 48 hours. On the procedure: Filter inserts were placed individually in 96-well mictrotiter plates. Each insert was saturated with bovine serum combined with titrated levels of experimental compounds starting at 100 ppm. Approximately 30 larval blowfly (Phormia regina) were placed each well and the entire plate sealed. The plates were incubated for up to 48 hours incubation at approximately 25° C. and 75-85% humidity after which efficacy was determined by visual inspection of each well for larvae movement. The results of testing compounds 1 and 8 are as follows (both compounds were active above 5 ppm): […]

The subject of series [5] is Tobacco Budworm (Heliothis virescens) neonate larvae. The experiment in a line: Tobacco Budworm Neonate Drench Assay. Format: in vivo. Particulars: rate 50 ppm, 27° C. Here is the method: A. Tobacco Budworm (Heliothis virescens) Neonate Drench Assay.
To compare insecticidal activities of formula 1 compounds in neonate (<6 hr post-eclosion) larval Heliothis virescens, 1 μg/μL acetone solutions of each of the metabolites were first prepared. The acetone solutions were then diluted with Millipore H2O containing 0.025% Triton X-100 surfactant to yield treatments of 25 or 50 ppm. One milliliter of either concentration of each metabolite was then pipetted directly over and onto a 100-mm diameter #1 Whatman qualitative filter paper circle upon which 20 tobacco budworm neonate larvae had been gently placed. Each treated filter paper and its associated larvae was then placed in a 20 mm×100 mm disposable plastic petri plate. One-hour later, a 1 cm^3 portion of agar-based lepidoptera diet (modified Shorey diet, Southland Products, Lake Village, Ariz.) was placed into each plate as a larval food source. The petri plate were held at 27° C. for 24 hr and then percent larval mortality in each treatment was determined.

Consider `CCC=CC1CCCC(OC2CCC(NC)C(C)O2)C(C)C(=O)C2=CC3C(C=CC4CC(OC5OC(C)C(OC)C(OC)C5OC)CC43)C2CC(=O)O1` (stereo not drawn) [Compound 3], for which, in series [1], the “Beet Armyworm Topical (120 hr) Mortality (%)” value stood at 100%.

For `CCC=CC1CCCC(OC2CCC(N(C)C)C(C)O2)C(C)C(=O)C2=CC3C(C=CC4C(O)C(OC5OC(C)C(OC)C(OC)C5OC)CC43)C2CC(=O)O1` (stereo not drawn) [Compound 8], in the series on adult stable fly (Study Day 2), the “% mortality Day 2” value amounted to 46%. Further, the “% mortality Day 3” value in the series with adult stable fly (Study Day 3) worked out at 76%. Further, in the series on adult stable fly (flies fed on Study Day 1), the “% mortality Day 1” value turned out to be 13%. In addition, in the series on adult stable fly (total percent fly mortality), the “% mortality Total” value is recorded as 76%. Further, the Percent mortality in series [2] (0.05%/500 ppm) was found to be 12.47%; in series [2] (0.1%/1000 ppm), 69.87%; in series [2] (0.5%/5000 ppm), 100%. Moreover, the “% mortality” value in series [3] (0.1 ppm in serum, 24 hr) was found to be 0%; in series [3] (0.1 ppm in serum, 48 hr) it was 0%; in series [3] (0.5 ppm in serum, 24 hr) it was 10%; in series [3] (0.5 ppm in serum, 48 hr), 10%; in series [3] (1.0 ppm in serum, 24 hr), 30%; in series [3] (1.0 ppm in serum, 48 hr) it was 80%. Also, the “% mortality” value in series [3] (5.0 ppm in serum, 24 hr) came to 90%; in series [3] (5.0 ppm in serum, 48 hr), 100%. The “efficacy by visual inspection for larvae movement” value in series [4] (0.15 ppm in bovine serum) is on record as “N”; in series [4] (0.31 ppm in bovine serum), “N”; in series [4] (0.62 ppm in bovine serum), “N”; in series [4] (1.25 ppm in bovine serum) it was “N”; in series [4] (2.5 ppm in bovine serum) it was “N”; in series [4] (5 ppm in bovine serum), “A”. The “activity against larval blowfly” value in series [4] (above 5 ppm (titrated from 100 ppm)) is listed as “active”.

Turning to `CCC=CC1CCCC(OC2CCC(N(C)C)C(C)O2)C(C)C(=O)C2=CC3C(C=C(C)C4CC(OC5OC(C)C(OC)C(OC)C5OC)CC43)C2CC(=O)O1` (stereo not drawn) [Compound 7], in series [5], the “Tobacco Budworm Neonate Drench (24 hr) Mortality (%)” value was found to be 100%.

Source of the values: patent publication US6455504B1, “Pesticidal macrolides” (priority 1999, dated 2002).
